Results as given in the supplement of paper PMC4858399.

Experiments:
[1] = tested on: Caenorhabditis elegans N2; test: mean nematode size ln(EXT) after 48 h, plate-adjusted (DMSO control set to 6) (ln(EXT), control-adjusted); higher = larger nematodes / less growth inhibition; conditions: exposure time 48 h
In short: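 Synchronised C. elegans N2 L1 larvae were grown for 48 h at 20°C in K-medium containing killed OP50, 1% DMSO and 0.5–200 µM chemical, at 50 per well and 4–6 wells per treatment. The Biosort recorded extinction for each worm, and a growth model removed debris. Worm size was obtained by natural-logging these values and averaging them per well. For plate adjustment, the vehicle control mean was subtracted and 6 was added.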

[2] = tested on: Caenorhabditis elegans N2; test: lowest effective concentration for larval growth inhibition (size below effect threshold); higher = less potent; conditions: exposure time 48 h
In short: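 In 96-well plates, 50 C. elegans N2 L1 larvae per well were cultured at 20°C for 48 h in K-medium with killed bacteria and 1% DMSO, plus the chemical at 0.5, 1, 5, 10, 50, 100 or 200 µM. Size was measured as per-worm extinction on a Biosort and log-transformed into well means. Taking the first dose where the plate-adjusted mean size sits under 5.665 and stays there at higher doses gives the lowest effective concentration.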

Structure (SMILES)	mean nematode size ln(EXT) (ln) ([1]; 0.5 µM)	mean nematode size ln(EXT) (ln) ([1]; 1 µM)	mean nematode size ln(EXT) (ln) ([1]; 5 µM)	mean nematode size ln(EXT) (ln) ([1]; 10 µM)	mean nematode size ln(EXT) (ln) ([1]; 50 µM)	mean nematode size ln(EXT) (ln) ([1]; 100 µM)	mean nematode size ln(EXT) (ln) ([1]; 200 µM)	lowest effective concentration [2]
CC1(C)CON(Cc2ccccc2Cl)C1=O [Clomazone]	6.09	6.23	6.29	6.06	6.2	6.07	5.68	> 200 µM
O=C(O)c1ccccc1 [Benzoic acid]	5.63	5.77	5.73	5.77	5.72	5.73	6.04	> 200 µM
CNC(=O)O/N=C(\SC)C(=O)N(C)C [Oxamyl]	6.13	6.48	6.09	6.33	6.42	6.43	5.75	> 200 µM
COP(N)(=O)SC (stereo not drawn) [Methamidophos]	5.74	5.85	5.85	5.88	5.89	5.93	5.87	> 200 µM
N#CCCCCC#N [Hexanedinitrile]	5.89	5.82	5.87	5.81	5.96	5.75	5.8	> 200 µM
Cc1cc(C)cc(C)c1 [1,3,5-Trimethylbenzene]	5.85	5.84	5.83	5.9	5.89	5.99	5.72	> 200 µM
Oc1cccc(O)c1 [Resorcinol]	5.81	5.86	5.94	5.84	5.88	5.84	5.78	> 200 µM
CNC(=O)Oc1ccccc1OC(C)C [Propoxur]	6.04	5.9	6.09	6.03	5.83	6.46	5.8	> 200 µM
Cc1ccc(N(C)C)cc1 [N,N,4-Trimethylaniline]	5.82	5.87	5.94	5.79	5.76	5.72	5.73	> 200 µM
COCc1cnc(C2=NC(C)(C(C)C)C(=O)N2)c(C(=O)O)c1 (stereo not drawn) [Imazamox]	5.93	5.93	5.91	5.96	6	6.01	5.83	> 200 µM
CN(C)C(=S)[S-].CN(C)C(=S)[S-].[Zn+2] [Ziram]	5.98	5.89	5.78	5.83	5.84	5.75	5.77	> 200 µM
Cc1ccc(O)c(C)c1 [2,4-Dimethylphenol]	5.82	5.97	5.96	5.87	5.85	5.84	5.72	> 200 µM
CCCCC(CC)COP(=O)(OCC(CC)CCCC)OCC(CC)CCCC (stereo not drawn) [Tris(2-ethylhexyl) phosphate]	5.94	5.99	5.94	5.96	5.92	5.34	5.78	> 200 µM
O=C([O-])c1ccccc1.[Na+] [Sodium benzoate]	5.83	5.83	5.95	5.83	5.86	5.76	5.68	> 200 µM
CC1(C)C(=O)NC(=O)N1CO [1-(Hydroxymethyl)-5,5-dimethylhydantoin]	5.87	6.04	5.96	5.91	5.91	5.85	5.69	> 200 µM
Nc1ccc([N+](=O)[O-])cc1 [4-Nitroaniline]	5.76	5.77	5.73	5.64	5.68	5.69	5.72	> 200 µM
CC[C@H](C)C(=O)O[C@H]1C[C@H](O)C=C2C=C[C@H](C)[C@H](CC[C@@H](O)C[C@@H](O)CC(=O)O)[C@H]21 [Pravastatin sodium]	5.99	5.97	5.93	5.92	5.91	5.79	5.81	> 200 µM
CN1COCN(Cc2cnc(Cl)s2)/C1=N\[N+](=O)[O-] [Thiamethoxam]	5.81	5.7	5.73	5.88	5.8	5.88	5.91	> 200 µM
C1N2CN3CN1CN(C2)C3 [Hexamethylenetetramine]	5.69	5.77	5.6	5.54	5.51	5.41	5.6	5 µM
CSc1nnc(C(C)(C)C)c(=O)n1N [Metribuzin]	5.83	5.88	5.91	5.85	5.84	5.87	5.78	> 200 µM
Cc1ccc(O)cc1C [3,4-Dimethylphenol]	5.87	5.86	5.92	5.91	5.95	5.86	5.86	> 200 µM
